Series [1] can be described thus: collision cross section (TIMS, N2 drift gas) of the primary ion; higher = larger gas-phase ion size.
Series [2] in a line: reversed-phase LC retention time (C18, 15 min MeOH gradient); higher = more hydrophobic / later elution.
The mark [3] stands for this setting: ionization mode: ESI-, ion species: [M-H]-.
Setting [4] is: ionization mode: ESI+, ion species: [M+H]+.
[5] abbreviates: ionization mode: ESI+, ion species: [M]+.

The results in this text go back to the supplement of paper PMC12613149.

Where a name gives a salt, the structure may show the parent alone.

In series [1] (setting [3]), `CCNc1nc(=O)nc(NC(C)(C)C)[nH]1` [Terbuthylazine-2-hydroxy] yielded a collision cross section of 151.91 Å². Also, in series [2] (setting [3]), the “reversed-phase LC retention time” value was found to be 12.4 min.
In series [1] (setting [4]), `CCNc1nc(Cl)nc(NC(C)(C)C)n1` [Terbuthylazine] yielded a collision cross section of 153.3 Å². Moreover, the “reversed-phase LC retention time” value in series [2] (setting [4]) came out at 14 min.
For `CCNc1nc(NC(C)(C)C)nc(SC)n1` [Terbutryn] the same measures were 160.25 Å² and 14 min.
For the molecule `C[C@]12CC[C@H]3[C@@H](CCC4=CC(=O)CC[C@@]43C)[C@@H]1CC[C@@H]2O` [Testosterone], the collision cross section in series [1] (setting [4]) turned out to be 172.76 Å². The “reversed-phase LC retention time” value in series [2] (setting [4]) worked out at 14.2 min.
In series [1] (setting [3]), `CC(C)(c1cc(Br)c(O)c(Br)c1)c1cc(Br)c(O)c(Br)c1` [Tetrabromobisphenol A] came in with a collision cross section of 192.83 Å². Moreover, the “reversed-phase LC retention time” value in series [2] (setting [3]) turned out to be 15.3 min.
Regarding `CCCC[N+](CCCC)(CCCC)CCCC` [Tetrabutylammonium], the collision cross section in series [1] (setting [5]) is 167.79 Å². The “reversed-phase LC retention time” value in series [2] (setting [5]) came out at 11 min.
In series [1] (setting [4]), `CCCCNc1ccc(C(=O)OCCN(C)C)cc1` [Tetracain] showed a collision cross section of 173.87 Å². In series [2] (setting [4]), the “reversed-phase LC retention time” value amounted to 11.2 min.
For `CCCCCCCCCCCCCCOS(=O)(=O)O` [Tetradecylsulfate], in series [1] (setting [3]), the collision cross section stood at 175.12 Å². In series [2] (setting [3]), the “reversed-phase LC retention time” value was 17.2 min.
For the molecule `CCCCCCCCCCCCCC[N+](C)(C)C` [Tetradecyltrimethylammonium], the collision cross section in series [1] (setting [5]) amounted to 187.45 Å². Also, the “reversed-phase LC retention time” value in series [2] (setting [5]) is 16.5 min.
The corresponding values for `CC[N+](CC)(CC)CC` [Tetraethylammonium] are 123.33 Å² and 1.03 min.
Molecule `COCCOCCOCCOCCOC` [Tetraglyme] returned a collision cross section in series [1] (setting [4]) of 152.39 Å². In addition, the “reversed-phase LC retention time” value in series [2] (setting [4]) was determined as 8.94 min.
The corresponding values for `O=C1NC(=O)C2CC=CCC12` (centres undefined) [Tetrahydrophthalimide] are 130.01 Å² and 5.38 min.
The corresponding values for `Cn1cnc2c1c(=O)[nH]c(=O)n2C` [Theobromine] are 130.33 Å² and 5.81 min.
For `Cn1c(=O)c2[nH]cnc2n(C)c1=O` [Theophyllin] the same measures were 135.99 Å² and 6.64 min.
The molecule `c1ccc2[nH]c(-c3cscn3)nc2c1` [Thiabendazole] came in with a collision cross section in series [1] (setting [4]) of 138.79 Å². Also, the “reversed-phase LC retention time” value in series [2] (setting [4]) was 8.08 min.
For `NC(=O)/N=C1\SCCN1Cc1ccc(Cl)nc1` [Thiacloprid amide] the same measures were 159.22 Å² and 8.75 min.
As for `N#C/N=C1/SCCN1Cc1ccc(Cl)nc1` [Thiacloprid], the collision cross section was found to be 158.43 Å² in series [1] (setting [4]) and 153.51 Å² in series [1] (setting [3]). For the same molecule, the “reversed-phase LC retention time” value in series [2] (setting [4]) turned out to be 9.94 min; in series [2] (setting [3]), 10 min.
In the case of `O=c1[nH]nc(C(F)(F)F)s1` [Thiadone], in series [1] (setting [3]), the collision cross section turned out to be 115.69 Å². Further, the “reversed-phase LC retention time” value in series [2] (setting [3]) was 6.79 min.
`CN1COCN(Cc2cnc(Cl)s2)/C1=N/[N+](=O)[O-]` [Thiamethoxam]: the collision cross section in series [1] (setting [4]) came to 159.96 Å². The “reversed-phase LC retention time” value in series [2] (setting [4]) was 7.66 min.
For `COP(=S)(OC)Oc1c(Cl)cc(C)cc1Cl` [Toclofos-methyl] the same measures were 151.78 Å² and 15.8 min.
Take `Cc1c(Cl)cccc1Nc1ccccc1C(=O)O` [Tolfenamic acid]: the collision cross section in series [1] (setting [4]) is recorded as 156.85 Å²; in series [1] (setting [3]), 158.38 Å². Besides, the “reversed-phase LC retention time” value in series [2] (setting [4]) is 16.6 min; in series [2] (setting [3]), 14.2 min.
The corresponding values for `Cc1cccc(Nc2ccncc2S(=O)(=O)NC(=O)NC(C)C)c1` [Torasemide] are 188.49 Å², 184.59 Å², 11.5 min and 12.4 min.
In series [1] (setting [4]), `COc1cccc([C@@]2(O)CCCC[C@@H]2CN(C)C)c1` [Tramadol] gave a collision cross section of 160.98 Å². Also, in series [2] (setting [4]), the “reversed-phase LC retention time” value was 9.25 min.
The corresponding values for `CCCCOCCOP(=O)(OCCOCCCC)OCCOCCCC` [Tri(butoxyethyl)phosphate] are 198.12 Å² and 16.7 min.
`CC(C)COP(=O)(OCC(C)C)OCC(C)C` [Tri-isobutylphosphate] showed a collision cross section in series [1] (setting [4]) of 165.01 Å². The “reversed-phase LC retention time” value in series [2] (setting [4]) is 16.3 min.
For `CCCCOC(=O)CC(O)(CC(=O)OCCCC)C(=O)OCCCC` [Tri-n-butyl citrate] the same measures were 203.87 Å² and 16.5 min.
Turning to `CC(C)N(C(=O)SCC(Cl)=C(Cl)Cl)C(C)C` [Triallate], in series [1] (setting [4]), the collision cross section is 162.33 Å². Moreover, the “reversed-phase LC retention time” value in series [2] (setting [4]) worked out at 17.2 min.
For `CCCCN(CCCC)CCCC` [Tributylamine] the same measures were 148.84 Å² and 10.1 min.
For `COP(=O)(OC)C(O)C(Cl)(Cl)Cl` (centres undefined) [Trichlorfon] the same measures were 138.18 Å² and 9.07 min.
For `O=C(Nc1ccc(Cl)cc1)Nc1ccc(Cl)c(Cl)c1` [Triclocarban], the collision cross section was 173.98 Å² in series [1] (setting [4]) and 167.79 Å² in series [1] (setting [3]). Besides, the “reversed-phase LC retention time” value was determined as 16.2 min in series [2] (setting [4]) and 16.6 min in series [2] (setting [3]).
Consider `Oc1cc(Cl)ccc1Oc1ccc(Cl)cc1Cl` [Triclosan], for which the collision cross section in series [1] (setting [3]) is 158.5 Å². For the same molecule, the “reversed-phase LC retention time” value in series [2] (setting [3]) stood at 16.8 min.
Turning to `Cc1ccc(OP(=O)(Oc2ccc(C)cc2)Oc2ccc(C)cc2)cc1` [Tricresylphosphate], the collision cross section in series [1] (setting [4]) was 190.01 Å². Also, the “reversed-phase LC retention time” value in series [2] (setting [4]) stood at 17.2 min.
As for `CCOC(=O)CC(O)(CC(=O)OCC)C(=O)OCC` [Triethylcitrate], in series [1] (setting [4]), the collision cross section came to 159.4 Å². In series [2] (setting [4]), the “reversed-phase LC retention time” value came out at 11.8 min.
For `CCCCOCCOCCOCCO` [Triethylene Glycol Monobutyl Ether] the same measures were 143.71 Å² and 11.2 min.
The corresponding values for `CCOP(=O)(OCC)OCC` [Triethylphosphate] are 131.26 Å² and 10.7 min.
The corresponding values for `CO/N=C(/C(=O)OC)c1ccccc1CO/N=C(\C)c1cccc(C(F)(F)F)c1` [Trifloxystrobin] are 188.81 Å² and 16.3 min.
In turn, `O=S(=O)(O)C(F)(F)F` [Trifluoromethanesulfonic acid] displayed a collision cross section in series [1] (setting [3]) of 108.15 Å². Also, in series [2] (setting [3]), the “reversed-phase LC retention time” value was 1.37 min.
Consider `COc1cc(Cc2cnc(N)nc2N)cc(OC)c1OC` [Trimethoprim], for which the collision cross section in series [1] (setting [4]) turned out to be 173.75 Å². Further, the “reversed-phase LC retention time” value in series [2] (setting [4]) was 7.8 min.
For `COP(=O)(OC)OC` [Trimethylphosphate] the same measures were 116.51 Å² and 6.15 min.
For `O=P(Oc1ccccc1)(Oc1ccccc1)Oc1ccccc1` [Triphenylphosphate] the same measures were 172.48 Å² and 15.7 min.
The corresponding values for `O=P(c1ccccc1)(c1ccccc1)c1ccccc1` [Triphenylphosphine oxide] are 163 Å² and 13.9 min.
`CCCOP(=O)(OCCC)OCCC` [Tripropyl phosphate] came in with a collision cross section in series [1] (setting [4]) of 149 Å². Further, in series [2] (setting [4]), the “reversed-phase LC retention time” value amounted to 14.2 min.
For `CCCN(CCC)CCC` [Tripropylamine] the same measures were 131.65 Å² and 6.72 min.
The corresponding values for `CC(CCl)OP(=O)(OC(C)CCl)OC(C)CCl` (centres undefined) [Tris(1-chloro-2-propyl)phosphate] are 162.58 Å² and 14.3 min.
In turn, `O=P(OCC(Br)CBr)(OCC(Br)CBr)OCC(Br)CBr` (centres undefined) [Tris(2,3-dibromopropyl)phosphate] came in with a collision cross section in series [1] (setting [4]) of 195.61 Å². Further, the “reversed-phase LC retention time” value in series [2] (setting [4]) is 16 min.
The corresponding values for `O=P(OCCCl)(OCCCl)OCCCl` [Tris(2-chloroethyl)phosphate] are 150.93 Å² and 11.7 min.
The corresponding values for `CCCCC(CC)COP(=O)(OCC(CC)CCCC)OCC(CC)CCCC` (centres undefined) [Tris(2-ethylhexl)phosphate] are 221.12 Å² and 19.8 min.
For `CCCCC(CC)COC(=O)c1ccc(C(=O)OCC(CC)CCCC)c(C(=O)OCC(CC)CCCC)c1` (centres undefined) [Tris(2-ethylhexyl)trimellitate] the same measures were 258.93 Å² and 20.9 min.
On to `COc1nc(NC(=O)NS(=O)(=O)c2ccccc2C(F)(F)F)nc(C(F)(F)F)n1` [Tritosulfuron], for which the values for the collision cross section in series [1] (setting [4]) and in series [1] (setting [3]) were 186.88 Å² and 184.96 Å², respectively. Further, the “reversed-phase LC retention time” value in series [2] (setting [4]) came out at 13.7 min; in series [2] (setting [3]) it was 11.8 min.
The corresponding values for `CC[C@H]1OC(=O)C[C@@H](O)[C@H](C)[C@@H](O[C@@H]2O[C@H](C)[C@@H](O[C@H]3C[C@@](C)(O)[C@@H](O)[C@H](C)O3)[C@H](N(C)C)[C@H]2O)[C@@H](CC=O)C[C@@H](C)C(=O)/C=C/C(C)=C/[C@@H]1CO[C@@H]1O[C@H](C)[C@@H](O)[C@@H](OC)[C@H]1OC` [Tylosin] are 282.55 Å², 293.81 Å², 13 min and 15.6 min.
The molecule `CC(C)(c1ccccc1)c1cc(-n2nc3ccccc3n2)c(O)c(C(C)(C)c2ccccc2)c1` [UV-234] showed a collision cross section in series [1] (setting [4]) of 219.51 Å². In addition, the “reversed-phase LC retention time” value in series [2] (setting [4]) was 19.7 min.
Consider `CC(C)(C)c1cc(-n2nc3ccccc3n2)c(O)c(C(C)(C)C)c1` [UV-320], for which the collision cross section was determined as 188.24 Å² in series [1] (setting [4]) and 193.86 Å² in series [1] (setting [3]). Moreover, the “reversed-phase LC retention time” value in series [2] (setting [4]) amounted to 19.7 min; in series [2] (setting [3]), 20.9 min.
Molecule `CC(C)(C)c1cc(-n2nc3ccc(Cl)cc3n2)c(O)c(C(C)(C)C)c1` [UV-327] had a collision cross section in series [1] (setting [3]) of 199.94 Å². In series [2] (setting [3]), the “reversed-phase LC retention time” value is 22 min.
As for `CCC(C)(C)c1cc(-n2nc3ccccc3n2)c(O)c(C(C)(C)CC)c1` [UV-328], the collision cross section in series [1] (setting [4]) stood at 196.56 Å². For the same molecule, the “reversed-phase LC retention time” value in series [2] (setting [4]) was determined as 20.1 min.
The corresponding values for `CC(C)(C)CC(C)(C)c1cc(-n2nc3ccccc3n2)c(O)c(C(C)(C)c2ccccc2)c1` [UV-928] are 220.23 Å² and 20.4 min.
